Reference: patent publication US9782483B2, “Sigma ligands for the prevention and/or treatment of emesis induced by chemotherapy or radiotherapy” (Laboratories Del Dr. Esteve, S.A., priority 2010, dated 2017)

Key:
[1] = during Patient-Controlled Analgesia Therapy; Tramèr et al. 1999; cited from earlier work
[2] = test system: ferret (Mustela putorius furo); assay: Antiemetic properties against cisplatin-induced emesis in the conscious, unrestrained ferret (telemetry); assay type: in vivo; details: cisplatin 5 mg/kg i.p., 80 mg/kg i.p., multiple dose regimen (9 treatments)
Method: The antiemetic properties of compound 63 were assessed in combination with intraperitoneal administration of the chemotherapeutic agent cisplatin in the conscious, unrestrained ferret (Mustela putorius furo).
At least 12 days before their first treatment, ferrets were surgically implanted with telemetry devices. Individual body weights were recorded before treatment, at the time of telemetry device implantation, one day before the initiation of treatment and after completion of the treatment session, at the time of euthanasia, for each animal respectively.
The animals were treated according to the following schedule: […]
Body temperature, abdominal pressure and activity of the abdominal muscle (EMG) were recorded in treated animals, on day 0 and day 7, respectively, starting approximately 1 hour before the first administration of the vehicle and the test item and for at least 72 hours following the first administration of the vehicle and the test item. […]
2.7 Administration of Emetogenic Item • Route: Intraperitoneal. • Method of administration: Bolus injection using a sterile syringe and needle introduced intraperitoneally into the pelvic area. • Frequency: One administration for each animal, on day 0 or 7, one hour after the first treatment with the test item • Volume of administration: 5 mL/kg. • Individual dose volumes were calculated using the latest recorded body weight. […]

Row | Compound | antinausea effect [1] | number of emetic events during the delayed phase ([2]; delayed phase 18 to 72 hours, vs vehicle) | maximum total number of emetic events (EE) ([2]; delayed phase, between 62 and 63 hours)
1 | CN1[C@@H]2CC[C@H]1C[C@@H](OC(=O)c1c[nH]c3ccccc13)C2 [tropisetron] | no evidence of any antinausea effect |  | 
2 | Cc1cc(OCCN2CCOCC2)nn1-c1ccc2ccccc2c1 [Compound 63, 4-{2-[5-Methyl-1-(naphthalen-2-yl)-1H-pyrazol-3-yloxy]ethyl}morpholine] |  | markedly decreased | 39
3 | Cc1nccn1CC1CCc2c(c3ccccc3n2C)C1=O (stereo not shown) [ondasetron] | no evidence of any antinausea effect |  | 
